The record followed here is publication PMC8998802 (Pain, 2019).

As usually defined, the Ki is the dissociation constant of the complex between target and ligand, obtained from inhibition or displacement. Lower therefore signals a stronger hold on the target.

The target of this assay is δ opioid receptor (DOR) (Homo sapiens, UniProt P41143). As to the kind of experiment: competition radioligand binding vs 3H-diprenorphine, DOR-CHO membranes.
δ opioid receptor (DOR), sequence (P41143 whole entry): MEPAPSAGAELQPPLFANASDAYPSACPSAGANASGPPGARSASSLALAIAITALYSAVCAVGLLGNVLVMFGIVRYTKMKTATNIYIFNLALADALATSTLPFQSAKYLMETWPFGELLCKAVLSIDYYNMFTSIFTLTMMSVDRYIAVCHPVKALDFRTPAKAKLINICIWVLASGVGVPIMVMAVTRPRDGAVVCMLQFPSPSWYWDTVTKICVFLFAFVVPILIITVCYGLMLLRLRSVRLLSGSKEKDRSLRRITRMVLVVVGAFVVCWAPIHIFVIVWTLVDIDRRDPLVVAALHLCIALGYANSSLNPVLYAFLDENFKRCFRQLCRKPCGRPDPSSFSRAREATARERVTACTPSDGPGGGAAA

For the compound `Cc1noc(C)c1CC(=O)NCc1nc(NCCCc2ccccc2)c2ccccc2n1` [IPPQ, 2-(3,5-dimethylisoxazol-4-yl)-N-((4-((3-phenylpropyl)amino)quinazolin-2-yl)methyl)acetamide], the Ki was more than 1000 nM.
